In patent US20260297101A1 (AbbVie Inc., priority 2015, published 2026):

Legend:
[1] = Multiple-dose escalation pharmacokinetics in healthy subjects (Study 2-Part 1); conditions: 24 mg BID IR, Day 14, from Cmax to Ctrough ratio, harmonic mean ± pseudo-SD, 20160 min
[2] = Solubility of upadacitinib in different aqueous media at 37 °C; conditions: low pH
[3] = clinical; conditions: human, in vivo, po, functional half-life (t1/2), BID IR oral solution
[4] = QD ER tablet

| t1/2F (functional half-life) [1] [h] | solubility [2] | half-life [3] [h] | time to maximum upadacitinib concentration (Tmax) [4] | SMILES |
| --- | --- | --- | --- | --- |
| 3.3 ± 0.4 | – | – | – | CC[C@@H]1CN(C(=O)NCC(F)(F)F)C[C@@H]1c1cnc2cnc3[nH]ccc3n12 [Compound 1, (3S,4R)-3-ethyl-4-(3H-imidazo[1,2-a]pyrrolo[2,3-e]pyrazin-8-yl)-N-(2,2,2-trifluoroethyl) pyrrolidine-1-carboxamide] |
| – | good solubility at low pH | ~2 | approximately 3 hours | CC[C@@H]1CN(C(=O)NCC(F)(F)F)C[C@@H]1c1cnc2cnc3[nH]ccc3n12 [upadacitinib, (3S,4R)-3-ETHYL-4-(3H-IMIDAZO[1,2-a]PYRROLO[2,3-e]-PYRAZIN-8-YL)-N-(2,2,2-TRIFLUOROETHYL)PYRROLIDINE-1-CARBOXAMIDE] |
